Measured values from the supplement of paper PMC10307832.

How the values were obtained:
Assay in all cases: relative viability (nuclei count vs DMSO), 5 days (fraction); higher = more cells survive
LU99A = tested on: LU99A
In short: (§1)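 One day after seeding in 1536-well plates, lung cancer cell lines were dosed by pin tool. Dosing was either single-drug or a fixed anchor-drug dose plus five library-drug doses (not always all listed) in √10 steps. After 5 days, nuclei were stained in one fix-and-stain step and counted on 4× images, and relative viability is the nuclei count of treated wells over that of vehicle wells, given as the median of duplicate plates.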

HCC-366 = tested on: HCC-366
In short: as §1

PC-3 [JPC-3] = tested on: PC-3 [JPC-3]
In short: as §1

NCI-H2087 = tested on: NCI-H2087
In short: as §1

NCI-H3122 = tested on: NCI-H3122
In short: as §1

NCI-H1755 = tested on: NCI-H1755
In short: as §1

NCI-H1395 = tested on: NCI-H1395
In short: as §1

HCC-78 = tested on: HCC-78
In short: as §1

NCI-H1651 = tested on: NCI-H1651
In short: as §1

NCI-H2228 = tested on: NCI-H2228
In short: as §1

UMC-11 = tested on: UMC-11
In short: as §1

NCI-H460 = tested on: NCI-H460
In short: as §1

RERF-LC-KJ = tested on: RERF-LC-KJ
In short: as §1

LC-2-ad = tested on: LC-2-ad
In short: as §1

NCI-H1793 = tested on: NCI-H1793
In short: as §1

CAL-12T = tested on: CAL-12T
In short: as §1

ABC-1 = tested on: ABC-1
In short: as §1

LOU-NH91 = tested on: LOU-NH91
In short: as §1

NCI-H1734 = tested on: NCI-H1734
In short: as §1

NCI-H2170 = tested on: NCI-H2170
In short: as §1

NCI-H1944 = tested on: NCI-H1944
In short: as §1

NCI-H2405 = tested on: NCI-H2405
In short: as §1

CC1(C)CCC(c2ccc(Cl)cc2)=C(CN2CCN(c3ccc(C(=O)NS(=O)(=O)c4ccc(N[C@H](CCN5CCOCC5)CSc5ccccc5)c(S(=O)(=O)C(F)(F)F)c4)cc3)CC2)C1 [Navitoclax] + Cc1nc(NC(=O)N2CCC[C@H]2C(N)=O)sc1-c1ccnc(C(C)(C)C(F)(F)F)c1 [Alpelisib] (partner 2 µM)
relative viability (LU99A; first compound 0.005 µM): 0.5
relative viability (LU99A; first compound 0.01581 µM): 0.573
relative viability (LU99A; first compound 0.05 µM): 0.406
relative viability (LU99A; first compound 0.1581 µM): 0.526
relative viability (LU99A; first compound 0.5 µM): 0.473
relative viability (HCC-366; first compound 0.005 µM): 0.391
relative viability (HCC-366; first compound 0.01581 µM): 0.588
relative viability (HCC-366; first compound 0.05 µM): 0.132
relative viability (HCC-366; first compound 0.1581 µM): 0.338
relative viability (HCC-366; first compound 0.5 µM): 0.361
relative viability (PC-3 [JPC-3]; first compound 0.005 µM): 1.04
relative viability (PC-3 [JPC-3]; first compound 0.01581 µM): 1.02
relative viability (PC-3 [JPC-3]; first compound 0.05 µM): 1.02
relative viability (PC-3 [JPC-3]; first compound 0.1581 µM): 1.03
relative viability (PC-3 [JPC-3]; first compound 0.5 µM): 1.06
relative viability (NCI-H2087; first compound 0.005 µM): 1.25
relative viability (NCI-H2087; first compound 0.01581 µM): 1.17
relative viability (NCI-H2087; first compound 0.05 µM): 1.03
relative viability (NCI-H2087; first compound 0.1581 µM): 1.05
relative viability (NCI-H2087; first compound 0.5 µM): 1.08
relative viability (NCI-H3122; first compound 0.005 µM): 0.686
relative viability (NCI-H3122; first compound 0.01581 µM): 0.8
relative viability (NCI-H3122; first compound 0.05 µM): 0.726
relative viability (NCI-H3122; first compound 0.1581 µM): 0.901
relative viability (NCI-H3122; first compound 0.5 µM): 0.766
relative viability (NCI-H1755; first compound 0.005 µM): 0.903
relative viability (NCI-H1755; first compound 0.01581 µM): 1
relative viability (NCI-H1755; first compound 0.05 µM): 0.906
relative viability (NCI-H1755; first compound 0.1581 µM): 0.904
relative viability (NCI-H1755; first compound 0.5 µM): 0.947
relative viability (NCI-H1395; first compound 0.005 µM): 1.05
relative viability (NCI-H1395; first compound 0.01581 µM): 1.26
relative viability (NCI-H1395; first compound 0.05 µM): 1.2
relative viability (NCI-H1395; first compound 0.1581 µM): 1.19
relative viability (NCI-H1395; first compound 0.5 µM): 1.12
relative viability (HCC-78; first compound 0.005 µM): 0.309
relative viability (HCC-78; first compound 0.01581 µM): 0.352
relative viability (HCC-78; first compound 0.1581 µM): 0.341
relative viability (HCC-78; first compound 0.5 µM): 0.339
relative viability (NCI-H1651; first compound 0.005 µM): 0.929
relative viability (NCI-H1651; first compound 0.01581 µM): 0.899
relative viability (NCI-H1651; first compound 0.1581 µM): 1
relative viability (NCI-H1651; first compound 0.5 µM): 0.946
relative viability (NCI-H2228; first compound 0.005 µM): 0.745
relative viability (NCI-H2228; first compound 0.01581 µM): 0.725
relative viability (NCI-H2228; first compound 0.05 µM): 0.602
relative viability (NCI-H2228; first compound 0.1581 µM): 0.688
relative viability (NCI-H2228; first compound 0.5 µM): 0.819
relative viability (UMC-11; first compound 0.005 µM): 0.961
relative viability (UMC-11; first compound 0.01581 µM): 1.02
relative viability (UMC-11; first compound 0.1581 µM): 0.979
relative viability (UMC-11; first compound 0.5 µM): 0.623
relative viability (NCI-H460; first compound 0.005 µM): 0.5
relative viability (NCI-H460; first compound 0.01581 µM): 0.533
relative viability (NCI-H460; first compound 0.05 µM): 0.639
relative viability (NCI-H460; first compound 0.1581 µM): 0.511
relative viability (NCI-H460; first compound 0.5 µM): 0.46
relative viability (RERF-LC-KJ; first compound 0.005 µM): 0.794
relative viability (RERF-LC-KJ; first compound 0.01581 µM): 0.839
relative viability (RERF-LC-KJ; first compound 0.05 µM): 0.765
relative viability (RERF-LC-KJ; first compound 0.1581 µM): 0.75
relative viability (RERF-LC-KJ; first compound 0.5 µM): 0.793
relative viability (LC-2-ad; first compound 0.005 µM): 0.972
relative viability (LC-2-ad; first compound 0.01581 µM): 0.948
relative viability (LC-2-ad; first compound 0.05 µM): 0.901
relative viability (LC-2-ad; first compound 0.1581 µM): 0.946
relative viability (LC-2-ad; first compound 0.5 µM): 0.904
relative viability (NCI-H1793; first compound 0.005 µM): 0.772
relative viability (NCI-H1793; first compound 0.01581 µM): 0.799
relative viability (NCI-H1793; first compound 0.05 µM): 0.574
relative viability (NCI-H1793; first compound 0.1581 µM): 0.858
relative viability (NCI-H1793; first compound 0.5 µM): 0.609
relative viability (CAL-12T; first compound 0.005 µM): 1.08
relative viability (CAL-12T; first compound 0.01581 µM): 1.28
relative viability (CAL-12T; first compound 0.05 µM): 1.31
relative viability (CAL-12T; first compound 0.1581 µM): 1.25
relative viability (CAL-12T; first compound 0.5 µM): 1.11
relative viability (ABC-1; first compound 0.005 µM): 1.14
relative viability (ABC-1; first compound 0.01581 µM): 1.39
relative viability (ABC-1; first compound 0.05 µM): 1.04
relative viability (ABC-1; first compound 0.1581 µM): 0.899
relative viability (ABC-1; first compound 0.5 µM): 1.01
relative viability (LOU-NH91; first compound 0.005 µM): 0.729
relative viability (LOU-NH91; first compound 0.01581 µM): 0.809
relative viability (LOU-NH91; first compound 0.05 µM): 0.69
relative viability (LOU-NH91; first compound 0.1581 µM): 0.769
relative viability (LOU-NH91; first compound 0.5 µM): 0.645
relative viability (NCI-H1734; first compound 0.005 µM): 0.618
relative viability (NCI-H1734; first compound 0.01581 µM): 0.779
relative viability (NCI-H1734; first compound 0.1581 µM): 0.645
relative viability (NCI-H1734; first compound 0.5 µM): 0.63
relative viability (NCI-H2170; first compound 0.005 µM): 0.785
relative viability (NCI-H2170; first compound 0.01581 µM): 0.872
relative viability (NCI-H2170; first compound 0.05 µM): 0.927
relative viability (NCI-H2170; first compound 0.1581 µM): 0.8
relative viability (NCI-H2170; first compound 0.5 µM): 0.583
relative viability (NCI-H1944; first compound 0.005 µM): 0.832
relative viability (NCI-H1944; first compound 0.01581 µM): 0.863
relative viability (NCI-H1944; first compound 0.05 µM): 0.786
relative viability (NCI-H1944; first compound 0.1581 µM): 0.836
relative viability (NCI-H1944; first compound 0.5 µM): 0.82
relative viability (NCI-H2405; first compound 0.005 µM): 0.762
relative viability (NCI-H2405; first compound 0.01581 µM): 0.896
relative viability (NCI-H2405; first compound 0.05 µM): 0.954
relative viability (NCI-H2405; first compound 0.1581 µM): 0.83
relative viability (NCI-H2405; first compound 0.5 µM): 0.834
